# Assay results as given in paper PMC5218480 (PLoS ONE, 2017).
# Test system: MV-4-11 cells
# Experiment: Gene expression microarray analysis (Affymetrix PrimeView) and GSEA
# Format: cell-based, human
# Design: RFU PODN (11730768_x_at) / Fold change /veh PODN (11730768_x_at) / RFU LINC00158 (11744669_a_at) / Fold change /veh LINC00158 (11744669_a_at) / RFU DUSP10 (11751237_a_at) / Fold change /veh DUSP10 (11751237_a_at) / RFU ID3 (11757404_x_at) / Fold change /veh ID3 (11757404_x_at) / RFU PLEKHG5 (11737974_s_at) / Fold change /veh PLEKHG5 (11737974_s_at) / RFU LRRC4B (11730491_at) / Fold change /veh LRRC4B (11730491_at) / RFU GIMAP4 (11747438_a_at) / Fold change /veh GIMAP4 (11747438_a_at) / RFU KRT8 (11758183_x_at) / Fold change /veh KRT8 (11758183_x_at) / RFU CNN1 (11734310_a_at) / Fold change /veh CNN1 (11734310_a_at) / RFU VPS37D (11726825_at) / Fold change /veh VPS37D (11726825_at) / RFU C10orf10 (11716522_x_at) / Fold change /veh C10orf10 (11716522_x_at) / RFU KIR2DL2 /// KIR2DL4 /// KIR2DL5A /// KIR2DL5B /// KIR2DS1 /// KIR2DS2 /// KIR2DS3 /// KIR2DS4 /// KIR3DL3 /// KIR3DL3 /// KIR3DS1 (11738374_at) / Fold change /veh KIR2DL2 /// KIR2DL4 /// KIR2DL5A /// KIR2DL5B /// KIR2DS1 /// KIR2DS2 /// KIR2DS3 /// KIR2DS4 /// KIR3DL3 /// KIR3DL3 /// KIR3DS1 (11738374_at) / RFU C1QL1 (11718748_at) / Fold change /veh C1QL1 (11718748_at) / RFU TMPRSS4 (11747572_a_at) / Fold change /veh TMPRSS4 (11747572_a_at) / RFU HAMP (11756126_x_at) / Fold change /veh HAMP (11756126_x_at) / RFU RNFT2 (11725882_a_at) / Fold change /veh RNFT2 (11725882_a_at) / RFU NR4A2 (11747474_a_at) / Fold change /veh NR4A2 (11747474_a_at) / RFU ABCC12 (11746883_a_at) / Fold change /veh ABCC12 (11746883_a_at) / RFU TMEM136 (11760407_x_at) / Fold change /veh TMEM136 (11760407_x_at) / RFU CLDN22 /// WWC2 (11732394_at) / Fold change /veh CLDN22 /// WWC2 (11732394_at) / RFU HLA-DPB1 (11760878_x_at) / Fold change /veh HLA-DPB1 (11760878_x_at) / RFU SPINT1 (11716480_a_at) / Fold change /veh SPINT1 (11716480_a_at) / RFU GAP43 (11754022_s_at) / Fold change /veh GAP43 (11754022_s_at) / RFU A4GNT (11735810_at) / Fold change /veh A4GNT (11735810_at) / RFU PRB3 (11715151_x_at) / Fold change /veh PRB3 (11715151_x_at) / RFU TUBB4B (11761932_at) / Fold change /veh TUBB4B (11761932_at) / RFU CAPN14 (11732068_a_at) / Fold change /veh CAPN14 (11732068_a_at) / RFU TMCC2 (11721928_a_at) / Fold change /veh TMCC2 (11721928_a_at) / RFU IRGQ (11745062_a_at) / Fold change /veh IRGQ (11745062_a_at) / RFU FAM174B (11720279_a_at) / Fold change /veh FAM174B (11720279_a_at) / RFU TMPRSS4 (11748680_a_at) / Fold change /veh TMPRSS4 (11748680_a_at) / RFU FAM212B (11763350_a_at) / Fold change /veh FAM212B (11763350_a_at) / RFU PLEKHG5 (11743358_a_at) / Fold change /veh PLEKHG5 (11743358_a_at) / RFU ZSCAN30 (11745921_a_at) / Fold change /veh ZSCAN30 (11745921_a_at) / RFU CMKLR1 (11741424_a_at) / Fold change /veh CMKLR1 (11741424_a_at) / RFU LOC101060620 /// MAPK8IP1 (11723275_at) / Fold change /veh LOC101060620 /// MAPK8IP1 (11723275_at) / RFU SPTSSB (11747773_x_at) / Fold change /veh SPTSSB (11747773_x_at) / RFU PRSS12 (11739890_at) / Fold change /veh PRSS12 (11739890_at) / RFU BIN1 (11741810_x_at) / Fold change /veh BIN1 (11741810_x_at) / RFU WNT11 (11732464_a_at) / Fold change /veh WNT11 (11732464_a_at) / RFU C10orf10 (11716521_a_at) / Fold change /veh C10orf10 (11716521_a_at) / RFU C5orf56 (11738089_at) / Fold change /veh C5orf56 (11738089_at) / RFU CYB561 (11721691_x_at) / Fold change /veh CYB561 (11721691_x_at) / RFU ANKRD19P (11752326_a_at) / Fold change /veh ANKRD19P (11752326_a_at) / RFU OR2T12 /// OR2T33 /// OR2T8 (11738714_s_at) / Fold change /veh OR2T12 /// OR2T33 /// OR2T8 (11738714_s_at) / RFU VCAN (11748164_a_at) / Fold change /veh VCAN (11748164_a_at) / RFU JSRP1 (11732532_at) / Fold change /veh JSRP1 (11732532_at) / RFU KRTAP10-11 (11738290_x_at) / Fold change /veh KRTAP10-11 (11738290_x_at) / RFU MYO3A (11730013_a_at) / Fold change /veh MYO3A (11730013_a_at) / RFU EBF3 (11725865_a_at) / Fold change /veh EBF3 (11725865_a_at) / RFU CAMK2N1 (11719241_x_at) / Fold change /veh CAMK2N1 (11719241_x_at) / RFU C5orf56 (11738088_a_at) / Fold change /veh C5orf56 (11738088_a_at) / RFU OLFML3 (11715873_a_at) / Fold change /veh OLFML3 (11715873_a_at) / RFU LOC100653217 /// NTM (11731650_a_at) / Fold change /veh LOC100653217 /// NTM (11731650_a_at) / RFU MAPK11 (11762145_a_at) / Fold change /veh MAPK11 (11762145_a_at) / RFU FIZ1 (11724087_x_at) / Fold change /veh FIZ1 (11724087_x_at) / RFU OASL (11726364_x_at) / Fold change /veh OASL (11726364_x_at) / RFU SOX15 (11748057_x_at) / Fold change /veh SOX15 (11748057_x_at) / RFU CD79A (11719716_a_at) / Fold change /veh CD79A (11719716_a_at) / RFU HIST1H1D (11736915_at) / Fold change /veh HIST1H1D (11736915_at) / RFU CASKIN2 (11723855_a_at) / Fold change /veh CASKIN2 (11723855_a_at) / RFU LOC730098 (11760151_x_at) / Fold change /veh LOC730098 (11760151_x_at) / RFU OR4N2 (11742367_at) / Fold change /veh OR4N2 (11742367_at) / RFU PRRT2 (11749266_a_at) / Fold change /veh PRRT2 (11749266_a_at) / RFU SNX32 (11753110_a_at) / Fold change /veh SNX32 (11753110_a_at) / RFU CDHR5 (11726645_a_at) / Fold change /veh CDHR5 (11726645_a_at) / RFU RCAN1 (11760418_a_at) / Fold change /veh RCAN1 (11760418_a_at) / RFU FAM167A (11723789_a_at) / Fold change /veh FAM167A (11723789_a_at) / RFU FAM26E (11764081_at) / Fold change /veh FAM26E (11764081_at) / RFU ISYNA1 (11749810_s_at) / Fold change /veh ISYNA1 (11749810_s_at) / RFU ACY1 (11761880_at) / Fold change /veh ACY1 (11761880_at) / RFU 11764098_at / Fold change /veh 11764098_at / RFU SAMD14 (11745864_x_at) / Fold change /veh SAMD14 (11745864_x_at) / RFU NPB (11741838_a_at) / Fold change /veh NPB (11741838_a_at) / RFU TMPRSS6 (11731388_a_at) / Fold change /veh TMPRSS6 (11731388_a_at) / RFU KRTAP10-2 (11738614_at) / Fold change /veh KRTAP10-2 (11738614_at) / RFU ARHGAP8 /// PRR5-ARHGAP8 (11727945_x_at) / Fold change /veh ARHGAP8 /// PRR5-ARHGAP8 (11727945_x_at) / RFU KRTAP5-7 /// NADSYN1 (11734609_at) / Fold change /veh KRTAP5-7 /// NADSYN1 (11734609_at) / RFU RASL12 (11751679_a_at) / Fold change /veh RASL12 (11751679_a_at) / RFU CDKN2B (11736163_a_at) / Fold change /veh CDKN2B (11736163_a_at) / RFU PRF1 (11729649_at) / Fold change /veh PRF1 (11729649_at) / RFU, ZNF638 /// ZNF638-IT1 / Fold change vs veh, ZNF638 /// ZNF638-IT1 / RFU, PANK3 / Fold change vs veh, PANK3 / RFU, SH3YL1 / Fold change vs veh, SH3YL1 / RFU, ZEB2 / Fold change vs veh, ZEB2 / RFU, NRIP1 / Fold change vs veh, NRIP1 / RFU, PTTG1IP / Fold change vs veh, PTTG1IP / RFU, CAPN2 / Fold change vs veh, CAPN2 / RFU, MED14 / Fold change vs veh, MED14 / RFU, SNORA58 / Fold change vs veh, SNORA58 / RFU, C1orf63 / Fold change vs veh, C1orf63 / RFU, LRRFIP1 / Fold change vs veh, LRRFIP1 / RFU, NDUFAF7 / Fold change vs veh, NDUFAF7 / RFU, SLC12A2 / Fold change vs veh, SLC12A2 / RFU, IBTK / Fold change vs veh, IBTK / RFU, ESF1 / Fold change vs veh, ESF1 / Fold change vs veh, TMEM50B / RFU, TAOK1 / Fold change vs veh, TAOK1 / RFU, ACBD3 / Fold change vs veh, ACBD3 / RFU, TMA16 / Fold change vs veh, TMA16 / RFU, RWDD3 / Fold change vs veh, RWDD3 / RFU, BCAT1 / Fold change vs veh, BCAT1 / RFU, EDEM3 / Fold change vs veh, EDEM3 / RFU, TMEM33 / Fold change vs veh, TMEM33 / RFU, WDR75 / Fold change vs veh, WDR75 / RFU, AHCTF1 / Fold change vs veh, AHCTF1 / RFU, TFRC / Fold change vs veh, TFRC / RFU, ZDHHC17 / Fold change vs veh, ZDHHC17 / RFU, NOM1 / Fold change vs veh, NOM1 / RFU, ARL8B / Fold change vs veh, ARL8B / RFU, ZBTB11 / Fold change vs veh, ZBTB11 / RFU, TAMM41 / Fold change vs veh, TAMM41 / RFU, KIAA1704 /// LOC100996395 / Fold change vs veh, KIAA1704 /// LOC100996395 / RFU, ING1 / Fold change vs veh, ING1 / RFU, TRMT61B / Fold change vs veh, TRMT61B / RFU, FUBP3 / Fold change vs veh, FUBP3 / RFU, TP53 / Fold change vs veh, TP53 / RFU, TNKS2 / Fold change vs veh, TNKS2 / RFU, ZFP14 / Fold change vs veh, ZFP14 / RFU, ACTR2 / Fold change vs veh, ACTR2 / RFU, PPP3R1 / Fold change vs veh, PPP3R1 / RFU, PIK3R1 / Fold change vs veh, PIK3R1 / RFU, HNRNPA1 / Fold change vs veh, HNRNPA1 / RFU, RNF170 / Fold change vs veh, RNF170 / RFU, ZNF28 / Fold change vs veh, ZNF28 / RFU, RNGTT / Fold change vs veh, RNGTT / RFU, OGT / Fold change vs veh, OGT / RFU, BRD1 / Fold change vs veh, BRD1 / RFU, MARS / Fold change vs veh, MARS / RFU, ZNF655 / Fold change vs veh, ZNF655 / RFU, FAHD1 / Fold change vs veh, FAHD1 / RFU, BDP1 / Fold change vs veh, BDP1 / RFU, LRRCC1 / Fold change vs veh, LRRCC1 / RFU, ARID1A / Fold change vs veh, ARID1A / RFU, ZNF146 / Fold change vs veh, ZNF146 / RFU, ZNF330 / Fold change vs veh, ZNF330 / RFU, GPN3 / Fold change vs veh, GPN3 / RFU, C9orf123 / Fold change vs veh, C9orf123 / RFU, N4BP2L2 / Fold change vs veh, N4BP2L2 / RFU, ARFIP1 / Fold change vs veh, ARFIP1 / RFU, FAM179B / Fold change vs veh, FAM179B / RFU, BCL10 / Fold change vs veh, BCL10 / RFU, UHRF1BP1L / Fold change vs veh, UHRF1BP1L / RFU, BET1 / Fold change vs veh, BET1 / RFU, CNOT2 / Fold change vs veh, CNOT2 / RFU, ZNF268 / Fold change vs veh, ZNF268 / Fold change vs veh, ZNF507 / RFU, DGCR2 / Fold change vs veh, DGCR2 / RFU, WDSUB1 / Fold change vs veh, WDSUB1 / Fold change vs veh, HSP90B1 /// MIR3652 / RFU, ADSS / Fold change vs veh, ADSS / RFU, GK / Fold change vs veh, GK / RFU, ZNF148 / Fold change vs veh, ZNF148 / RFU, TAF9 / Fold change vs veh, TAF9 / RFU, SLC1A5 / Fold change vs veh, SLC1A5 / RFU, SLMO2 / Fold change vs veh, SLMO2 / RFU, ABCC4 / Fold change vs veh, ABCC4 / RFU, LOC101060439 /// RAP1B / Fold change vs veh, LOC101060439 /// RAP1B / RFU, RFX7 / Fold change vs veh, RFX7 / RFU, GTPBP10 / Fold change vs veh, GTPBP10 / RFU, CNEP1R1 / Fold change vs veh, CNEP1R1 / RFU, BIVM-ERCC5 /// ERCC5 / Fold change vs veh, BIVM-ERCC5 /// ERCC5 / RFU, ILF3 / Fold change vs veh, ILF3 / RFU 11762660_at / Fold change /veh 11762660_at / RFU VCAN (11757783_s_at) / Fold change /veh VCAN (11757783_s_at) / RFU DDX43 (11728927_at) / Fold change /veh DDX43 (11728927_at) / RFU KRT8 (11758188_x_at) / Fold change /veh KRT8 (11758188_x_at) / RFU NKD1 (11759106_at) / Fold change /veh NKD1 (11759106_at) / RFU SRD5A1 (11742802_a_at) / Fold change /veh SRD5A1 (11742802_a_at) / RFU TPSAB1 /// TPSB2 (11721975_s_at) / Fold change /veh TPSAB1 /// TPSB2 (11721975_s_at) / RFU GSTM3 (11746129_a_at) / Fold change /veh GSTM3 (11746129_a_at) / RFU IL23R (11737362_x_at) / Fold change /veh IL23R (11737362_x_at) / RFU TMEM51 (11727254_a_at) / Fold change /veh TMEM51 (11727254_a_at) / RFU PIWIL2 (11732686_x_at) / Fold change /veh PIWIL2 (11732686_x_at) / RFU ORM1 (11744905_x_at) / Fold change /veh ORM1 (11744905_x_at) / RFU CCDC152 (11743942_at) / Fold change /veh CCDC152 (11743942_at) / RFU ECM1 (11717891_a_at) / Fold change /veh ECM1 (11717891_a_at) / RFU IL23R (11748794_a_at) / Fold change /veh IL23R (11748794_a_at) / RFU TNFAIP8L3 (11732012_x_at) / Fold change /veh TNFAIP8L3 (11732012_x_at) / RFU MBOAT4 (11741988_at) / Fold change /veh MBOAT4 (11741988_at) / RFU 11764193_at / Fold change /veh 11764193_at / RFU TMEM53 (11763286_at) / Fold change /veh TMEM53 (11763286_at) / RFU MAGEB2 (11727129_at) / Fold change /veh MAGEB2 (11727129_at) / RFU TMEM200A (11744735_a_at) / Fold change /veh TMEM200A (11744735_a_at) / RFU CCDC152 (11751479_a_at) / Fold change /veh CCDC152 (11751479_a_at) / RFU FAM211A (11726209_a_at) / Fold change /veh FAM211A (11726209_a_at) / RFU RGS16 (11746705_a_at) / Fold change /veh RGS16 (11746705_a_at) / RFU VCAN (11755009_s_at) / Fold change /veh VCAN (11755009_s_at) / RFU RHOB (11743442_s_at) / Fold change /veh RHOB (11743442_s_at) / RFU RGS16 (11720943_a_at) / Fold change /veh RGS16 (11720943_a_at) / RFU RGS16 (11720944_at) / Fold change /veh RGS16 (11720944_at) / RFU, VPS4B / Fold change vs veh, VPS4B / RFU, CREB1 / Fold change vs veh, CREB1 / RFU, DNAJC13 / Fold change vs veh, DNAJC13 / RFU, GNAQ / Fold change vs veh, GNAQ / RFU, CDK5R1 / Fold change vs veh, CDK5R1 / RFU, ZRANB3 / Fold change vs veh, ZRANB3 / RFU, CUL4A / Fold change vs veh, CUL4A / RFU, CCNY / Fold change vs veh, CCNY / RFU, UFL1 / Fold change vs veh, UFL1 / RFU, COG3 / Fold change vs veh, COG3 / RFU, DIAPH2 / Fold change vs veh, DIAPH2 / RFU, SKA2 / Fold change vs veh, SKA2 / RFU, AFF3 / Fold change vs veh, AFF3 / RFU, LMF1 / Fold change vs veh, LMF1 / RFU, IPO11 / Fold change vs veh, IPO11 / RFU, DFFB / Fold change vs veh, DFFB / RFU, FOXP1 / Fold change vs veh, FOXP1 / RFU, CARD8 / Fold change vs veh, CARD8 / RFU, STRN3 / Fold change vs veh, STRN3 / RFU, ADK / Fold change vs veh, ADK / RFU, RASSF2 / Fold change vs veh, RASSF2 / RFU, WIPF1 / Fold change vs veh, WIPF1 / RFU, LARP1B / Fold change vs veh, LARP1B / RFU, RASA1 / Fold change vs veh, RASA1 / RFU, RB1 / Fold change vs veh, RB1 / RFU, PPFIA1 / Fold change vs veh, PPFIA1 / RFU, MAT2A / Fold change vs veh, MAT2A / RFU, CCT5 / Fold change vs veh, CCT5 / RFU, WDR92 / Fold change vs veh, WDR92 / RFU, CUX1 / Fold change vs veh, CUX1 / RFU, TTC7A / Fold change vs veh, TTC7A / RFU, TMEM135 / Fold change vs veh, TMEM135 / RFU, DEPTOR / Fold change vs veh, DEPTOR / RFU, CPM / Fold change vs veh, CPM / RFU, DNAJB6 / Fold change vs veh, DNAJB6 / RFU, CACNA2D3 / Fold change vs veh, CACNA2D3 / RFU, DTX4 / Fold change vs veh, DTX4 / RFU, TFCP2 / Fold change vs veh, TFCP2 / RFU, GMCL1 /// GMCL1P1 / Fold change vs veh, GMCL1 /// GMCL1P1 / RFU, AEBP2 / Fold change vs veh, AEBP2 / RFU, SNHG1 /// SNORD22 /// SNORD25 /// SNORD26 /// SNORD27 /// SNORD28 /// SNORD29 /// SNORD31 / Fold change vs veh, SNHG1 /// SNORD22 /// SNORD25 /// SNORD26 /// SNORD27 /// SNORD28 /// SNORD29 /// SNORD31 / Fold change (Aza/veh), C12orf56 (ProbeSet 11735607_a_at) / Fold change (ACY-1035/veh), C12orf56 (ProbeSet 11735607_a_at) / Fold change (Aza/veh), FGFR1OP (ProbeSet 11751329_s_at) / Fold change (ACY-1035/veh), FGFR1OP (ProbeSet 11751329_s_at) / Fold change (Aza/veh), VPS36 (ProbeSet 11739960_a_at) / Fold change (ACY-1035/veh), VPS36 (ProbeSet 11739960_a_at) / RFU SYPL1 (11715823_x_at) / Fold change /veh SYPL1 (11715823_x_at) / RFU IGFBP7 (11715501_s_at) / Fold change /veh IGFBP7 (11715501_s_at) / RFU REEP3 (11722064_at) / Fold change /veh REEP3 (11722064_at) / RFU IGLL1 (11728026_x_at) / Fold change /veh IGLL1 (11728026_x_at): dose or concentration left out as unconfirmed
# Settings: ProbeSet 11718701_a_at; LIST B
compound,measurement,value
Nc1ccc(-c2cccs2)cc1NC(=O)c1ccc2c(c1)cc(C1CC1)n2CCN1CCOCC1 [ACY-1035],"Fold change vs veh, ARFIP1",0.86
